Measurements published in patent US20260232767A1, “INTERLEUKIN-23 RECEPTOR ANTAGONIST PEPTIDES FOR USE IN THE TREATMENT OF PSORIASIS” (Janssen Pharmaceutica NV, priority 2023, published 2026).

Tested on: subjects with moderate-to-severe plaque psoriasis
Experiment: PASI response, Example 1 16-week dose-ranging study
Type: in vivo, human
Conditions: Week 16; for PASI 100% Improvement, n subjects / PASI ≥75% Improvement, n subjects / PASI ≥90% Improvement, n subjects / PASI ≥75% Improvement, % subjects / PASI ≥90% Improvement, % subjects: N=2
Method: The Psoriasis Area and Severity Index (PASI) is a system used for assessing and grading the severity of psoriatic lesions and their response to therapy. In the PASI system, the body is divided into four regions: the head, trunk, upper extremities, and lower extremities. Each of these areas is assessed and scored separately for erythema, induration, and scaling, which are each rated on a scale of 0 to 4 and extent of involvement on a scale of 0 to 6. The PASI produces a numeric score (a “PASI score”) that can range from 0 to 72. A higher score indicates more severe disease.
This was a randomized, double-blind, placebo-controlled, dose-ranging, parallel group, multicenter, interventional study in subjects with moderate-to-severe plaque psoriasis. A target of 240 subjects were enrolled in this study with 40 subjects planned per intervention group.
Clinician-reported outcomes including Psoriasis Area and Severity Index (PASI), Body Surface Area (BSA), Investigator's Global Assessment (IGA), Nail Psoriasis Area and Severity Index (NAPSI), Fingernail Physician's Global Assessment (f-PGA), Static Physician's Global Assessment of Genitalia (s-PGA-G), Physician's Global Assessment of Hands and/or Feet (hf-PGA), and Scalp Specific Investigator Global Assessment (ss-IGA) were obtained at Week 0, 8, and 16. PASI and IGA were also obtained at Weeks 1, 2, 4, and 12, and at Week 20, four weeks after the administration of the tablets has stopped.
The primary efficacy endpoint was the proportion of participants achieving a PASI 75 response at Week 16, defined as at least a 75% reduction from baseline in PASI total score.
For the primary analysis, composite strategy (non-responder imputation) was applied to address intercurrent event #1 (Discontinuation of study intervention due to lack of efficacy or due to an AE of worsening of psoriasis) and #2 (initiation of a protocol-prohibited medication or therapy that could improve psoriasis); and treatment policy strategy (observed data) was applied to intercurrent event #3 (Discontinuation of study intervention due to other reasons). Participants with missing data after application of ICEs are also considered as non-responders.
In addition to the response analysis, pairwise comparisons of each treatment group versus the placebo group were performed for the primary endpoint of PASI 75 at Week 16. Pairwise comparisons were not adjusted for multiplicity. The Cochran-Mantel-Haenszel chi-square statistic stratified by baseline weight category (≤90 kg, >90 kg) at a 2-sided significance level of 0.05 was used (Table 2).

[1] = 25 mg BID, peak plasma conc. <Q1
[2] = 25 mg BID, peak plasma conc. Q1 to <Q2
[3] = 25 mg BID, peak plasma conc. Q2 to <Q3
[4] = 25 mg BID, peak plasma conc. ≥Q3
[5] = 25 mg BID, trough plasma conc <Q1
[6] = 25 mg BID, trough plasma conc Q1 to <Q2
[7] = 25 mg BID, trough plasma conc Q2 to <Q3
[8] = 25 mg BID, trough plasma conc ≥Q3
[9] = 25 mg QD, peak plasma conc. <Q1
[10] = 25 mg QD, peak plasma conc. Q1 to <Q2
[11] = 25 mg QD, peak plasma conc. Q2 to <Q3
[12] = 25 mg QD, peak plasma conc. ≥Q3
[13] = 25 mg QD, trough plasma conc <Q1
[14] = 25 mg QD, trough plasma conc Q1 to <Q2
[15] = 25 mg QD, trough plasma conc Q2 to <Q3

CC(=O)NCCCC[C@@H]1NC(=O)[C@H](Cc2c[nH]c3c(C)cccc23)NC(=O)[C@H]([C@@H](C)O)NC(=O)[C@H](CC(N)=O)NC(=O)[C@@H](NC(C)=O)C(C)(C)SSC(C)(C)[C@@H](C(=O)N[C@@H](Cc2ccc(OCCN)cc2)C(=O)N[C@@H](Cc2ccc3ccccc3c2)C(=O)NC2(C(=O)N[C@@H](CCC(=O)O)C(=O)N[C@@H](CC(N)=O)C(=O)N[C@@H](Cc3cccnc3)C(=O)N(C)CC(N)=O)CCOCC2)NC1=O [IL-23 receptor antagonist peptide, Ac-[Pen]*-N-T-[W(7-Me)]-[Lys(Ac)]-[Pen]*-Phe[4-(2-aminoethoxy)]-[2-Nal]-[THP]-E-N-[3-Pal]-Sarc-NH2 (*[Pen]-[Pen]* formdisulfidebond)]
PASI 75 treatment difference vs placebo (25 mg BID): 41.9% | PASI 90 treatment difference vs placebo (25 mg BID): 24.5% (10.4%, | PASI 100 treatment difference vs placebo (25 mg BID): 9.7% (0.7%, | Subjects achieving PASI 75 (25 mg BID): 51.2% | Subjects achieving PASI 90 (25 mg BID): (26.8%) | Subjects achieving PASI 100 (25 mg BID): (9.8%) | PASI 75, % (25 mg BID, N=41): (51.2) % | PASI 90, % (25 mg BID, N=41): (26.8) % | PASI 100, % (25 mg BID, N=41): (9.8) % | PASI 100% Improvement, n subjects [1]: 0 | PASI ≥75% Improvement, n subjects [1]: 0 | PASI ≥90% Improvement, n subjects [1]: 0 | PASI 100% Improvement, n subjects [2]: 0 | PASI ≥75% Improvement, % subjects [2]: (100.0%) | PASI ≥75% Improvement, n subjects [2]: 2 | PASI ≥90% Improvement, n subjects [2]: 0 | PASI 100% Improvement, n subjects [3]: 0 | PASI ≥75% Improvement, % subjects [3]: (50.0%) | PASI ≥75% Improvement, n subjects [3]: 1 | PASI ≥90% Improvement, % subjects [3]: (50.0%) | PASI ≥90% Improvement, n subjects [3]: 1 | PASI 100% Improvement, n subjects [4]: 0 | PASI ≥75% Improvement, % subjects [4]: (50.0%) | PASI ≥75% Improvement, n subjects [4]: 1 | PASI ≥90% Improvement, % subjects [4]: (50.0%) | PASI ≥90% Improvement, n subjects [4]: 1 | PASI 100% Improvement, subjects [5]: 1 (16.7%) | PASI ≥75% Improvement, subjects [5]: 3 (50.0%) | PASI ≥90% Improvement, subjects [5]: 2 (33.3%) | PASI 100% Improvement, subjects [6]: 1 (16.7%) | PASI ≥75% Improvement, subjects [6]: 1 (16.7%) | PASI ≥90% Improvement, subjects [6]: 1 (16.7%) | PASI 100% Improvement, subjects [7]: 0 | PASI ≥75% Improvement, subjects [7]: 3 (50.0%) | PASI ≥90% Improvement, subjects [7]: 2 (33.3%) | PASI 100% Improvement, subjects [8]: 2 (33.3%) | PASI ≥75% Improvement, subjects [8]: 100.0% | PASI ≥90% Improvement, subjects [8]: 3 (50.0%) | PASI 75 treatment difference vs placebo (25 mg QD): 27.9% | PASI 90 treatment difference vs placebo (25 mg QD): 23.3% (9.6%, | PASI 100 treatment difference vs placebo (25 mg QD): 11.6% (2.4%, | Subjects achieving PASI 90 (25 mg QD): (25.6%) | Subjects achieving PASI 100 (25 mg QD): (11.6%) | PASI 75, % (25 mg QD, N=43): (37.2) % | PASI 90, % (25 mg QD, N=43): (25.6) % | PASI 100, % (25 mg QD, N=43): (11.6) % | PASI 100% Improvement, n subjects [9]: 0 | PASI ≥75% Improvement, % subjects [9]: (50.0%) | PASI ≥75% Improvement, n subjects [9]: 1 | PASI ≥90% Improvement, % subjects [9]: (50.0%) | PASI ≥90% Improvement, n subjects [9]: 1 | PASI 100% Improvement, n subjects [10]: 0 | PASI ≥75% Improvement, % subjects [10]: (50.0%) | PASI ≥75% Improvement, n subjects [10]: 1 | PASI ≥90% Improvement, % subjects [10]: (50.0%) | PASI ≥90% Improvement, n subjects [10]: 1 | PASI 100% Improvement, n subjects [11]: 0 | PASI ≥75% Improvement, % subjects [11]: (50.0%) | PASI ≥75% Improvement, n subjects [11]: 1 | PASI ≥90% Improvement, % subjects [11]: (50.0%) | PASI ≥90% Improvement, n subjects [11]: 1 | PASI 100% Improvement, n subjects [12]: 0 | PASI ≥75% Improvement, % subjects [12]: (50.0%) | PASI ≥75% Improvement, n subjects [12]: 1 | PASI ≥90% Improvement, % subjects [12]: (50.0%) | PASI ≥90% Improvement, n subjects [12]: 1 | PASI 100% Improvement, subjects [13]: 1 (20.0%) | PASI ≥75% Improvement, subjects [13]: 2 (40.0%) | PASI ≥90% Improvement, subjects [13]: 2 (40.0%) | PASI 100% Improvement, subjects [14]: 1 (16.7%) | PASI ≥75% Improvement, subjects [14]: 2 (33.3%) | PASI ≥90% Improvement, subjects [14]: 2 (33.3%) | PASI 100% Improvement, subjects [15]: 0) | PASI ≥75% Improvement, subjects [15]: 2 (40.0%) | PASI ≥90% Improvement, subjects [15]: 0
